Laboratory results: US12552765B2, “Small molecule modulators of pantothenate kinases” (ST. JUDE CHILDREN'S RESEARCH HOSPITAL, INC., priority 2016, dated 2026)

Columns and labels:
[1] = molecular target: hPanK3 (Homo sapiens, UniProt Q9H999); experiment: Inhibition of PanK kinase activity (phosphorylation of pantothenate, purified protein); assay type: biochemical; settings: for Ki: Morrison Ki fit
[2] = test system: diabetic ob/ob mice; experiment: Blood glucose in adult male diabetic ob/ob mice; assay type: in vivo; settings: 10 mg/kg orally at 12-hr intervals, 5 doses, pantothenate-deficient chow, in 30% Captisol; non-diabetic range 120±20 mg/dL
Protocol: Compound was administered orally at 12-hr intervals for a total of 5 doses starting at T=0 hr. Blood glucose from the tail vein was measured just prior to each administration. Compound was formulated in 30% Captisol (o); 30% Captisol only (•).

Sequence of hPanK3 (Q9H999 whole entry): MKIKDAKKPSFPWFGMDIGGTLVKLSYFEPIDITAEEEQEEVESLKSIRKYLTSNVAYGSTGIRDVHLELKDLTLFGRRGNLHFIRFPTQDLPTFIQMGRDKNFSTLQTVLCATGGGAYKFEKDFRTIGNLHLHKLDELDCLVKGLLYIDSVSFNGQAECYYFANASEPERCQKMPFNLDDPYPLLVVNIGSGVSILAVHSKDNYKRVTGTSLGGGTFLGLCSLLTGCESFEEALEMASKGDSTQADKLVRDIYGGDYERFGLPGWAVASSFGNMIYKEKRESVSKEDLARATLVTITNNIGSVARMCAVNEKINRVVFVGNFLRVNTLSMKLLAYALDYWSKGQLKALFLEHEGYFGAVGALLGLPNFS

SMILES	Ki [1] [nM]	also measured
CC(C)c1ccc(CC(=O)NCCNc2ccc(C#N)nn2)cc1 [Compound 90]	28.3	–
CC(C)c1ccc(CC(=O)N2CCN(c3ccc([N+](=O)[O-])nc3)CC2)cc1 [Compound 120]	0.64	–
CC(C)(C)c1ccc(CC(=O)N2CCN(c3ccc(Cl)nn3)CC2)cc1 [Compound 74]	1.8	–
CSc1cccc(CC(=O)N2CCN(c3ccc(C#N)nn3)[C@H](C)C2)c1 [Compound 135]	38	–
CC(c1ccc(CC(=O)N2CCN(c3ccc(C#N)nn3)[C@@H](C)C2)cc1)C(F)(F)F (some centres unmarked) [Compound 144]	2.5	–
Cc1ccc(CNC(=O)N2CCN(c3ccc(C#N)cn3)CC2)cc1 [Compound 24]	–	IC50 [1]: > 10000 nM
CC(C)c1ccc(CC(=O)N[C@H]2CN(c3ccc(C#N)nn3)C[C@@H]2O)cc1F [Compound 95]	51	–
N#Cc1ccc(N2CCN(C(=O)NC3CCCCC3)CC2)nc1 [Compound 19]	–	IC50 [1]: > 10000 nM
CCCCCCCCNC(=O)N1CCN(c2ccc(C#N)cn2)CC1 [Compound 21]	–	IC50 [1]: > 10000 nM
CC(C)c1ccc(CC(=O)N2CC[C@@H](Nc3ccc(C#N)nn3)C2)cc1 [Compound 84]	9.1	–
CC(C)c1ccc(CC(=O)N[C@H]2CCN(c3ccc(C#N)nn3)C2)cc1 [Compound 85]	7.1	–
CC(C)c1ccc(CC(=O)N[C@@H]2CN(c3ccc(C#N)nn3)C[C@H]2O)cc1 [Compound 91]	35	–
CC(C)c1ccc(CC(=O)N2CCN(c3ccc(C#N)nn3)[C@@H](C)C2)cn1 [Compound 132]	12.6	–
CC(C)c1ccc(CC(=O)N2CCN(c3ccc(C#N)nn3)C[C@H]2C)cc1 [Compound 121]	1.4	–
CC(C)(C)NC(=O)N1CCN(c2ccc(C#N)cn2)CC1 [Compound 20]	–	IC50 [1]: > 10000 nM
CC(C)NC(=O)N1CCN(c2ccc(C#N)cn2)CC1 [Compound 22]	–	IC50 [1]: > 10000 nM
CC(C)c1ccc(CC(=O)N2CCN(c3ccc(C#N)nn3)CC2)cc1 [6-(4-(2-(4-isopropylphenyl)acetyl)piperazin-1-yl)pyridazine-3-carbonitrile]	–	blood glucose level [2]: reduces the blood glucose level to values within the range of non-diabetic mice
CC(C)c1cc(NC(=O)N2CCN(c3ccc(C#N)cn3)CC2)on1 [Compound 27]	–	IC50 [1]: > 10000 nM
CC(c1ccc(CC(=O)N2CCN(c3ccc(C#N)nn3)[C@H](C)C2)cc1)C(F)(F)F (some centres unmarked) [Compound 145]	1.5	–
CC(C)c1ccc(CC(=O)N[C@H]2CCN(c3ccc(C#N)nn3)C2)cn1 [Compound 106]	5.9	–
N#Cc1ccc(N2CCN(C(=O)NCc3ccco3)CC2)nc1 [Compound 25]	–	IC50 [1]: > 10000 nM
CC(C)c1ccc(CC(=O)N2CCN(c3ccc(C#N)nn3)[C@@H](C)C2)cc1 [Compound 126]	0.09	–
CC(C)c1ccc(CC(=O)N2CCN(c3ccc(C#N)nn3)CC2)nc1 [Compound 82]	62.5	–
CC(C)c1ccc(CC(=O)N[C@H]2CCN(c3ccc(C#N)nn3)C2)cc1F [Compound 94]	1.1	–
CC(C)c1ccc(CC(=O)N2CCN(c3ccc(C#N)nn3)CC2)s1 [Compound 119]	3.3	–
Cc1cc(OC(=O)N2CCN(c3ccc(C#N)nn3)CC2)ccc1C(C)C [Compound 80]	55.7	–
CCC(C)c1ccc(NC(=O)N2CCN(c3ccc(C#N)nn3)CC2)cc1 (centres unmarked) [Compound 66]	7.8	–
CC(C)c1ccc(CC(=O)N2CCN(c3ccc(Cl)nn3)[C@H](C)C2)cn1 [Compound 134]	10.6	–
CC(C)c1ccc(CC(=O)N2CCN(c3ccc(Cl)nn3)[C@@H](C)C2)cn1 [Compound 133]	9.7	–

More lines, main results first:

Ki [1] [nM]	SMILES	also measured
5	CC(C)c1ccc(CC(=O)NC2CCN(c3ccc(C#N)nn3)CC2)cc1 [Compound 118]	–
40.8	CC(C)c1ccc(CC(=O)N[C@@H]2CN(c3ccc(C#N)nn3)C[C@@H]2O)cc1 [Compound 92]	–
4.1	CC(C)c1ccc(CC(=O)N2CCN(c3cnc(Cl)cn3)CC2)s1 [Compound 122]	–
22.4	CSc1ccc(CC(=O)N2CCN(c3ccc(C#N)nn3)[C@H](C)C2)cc1 [Compound 129]	–
9	CC(C)c1ccc(CC(=O)N2CCN(c3ccc(C#N)nn3)[C@H](C)C2)cn1 [Compound 131]	–
0.97	CC(C)(C)c1ccc(CC(=O)N2CCN(c3ccc(C#N)nn3)CC2)cc1 [Compound 73]	–
1.5	CC(C)c1ccc(CC(=O)N[C@H]2CCN(c3ccc(C#N)nn3)C2)c(F)c1 [Compound 100]	–
36.3	CC(C)c1ccc(NC(=O)N[C@H]2CCN(c3ccc(C#N)nn3)C2)cc1 [Compound 88]	–
21.1	CC(C)c1ccc(CC(=O)N[C@@H]2CN(c3ccc(C#N)nn3)C[C@H]2O)c(F)c1 [Compound 107]	–
1.3	CC(C)c1ccc(CC(=O)N2CCN(c3ccc(C#N)nn3)[C@@H](C)C2)s1 [Compound 128]	–
1.1	CC(C)c1ccc(CC(=O)N2CCN(c3ccc(C#N)nn3)C[C@@H]2C)cc1 [Compound 124]	–
4.7	CC(C)c1ccc(OC(=O)N2CCN(c3ccc(C#N)nn3)[C@H](C)C2)cc1 [Compound 139]	–
14.1	CC(C)c1ccc(N(C)C(=O)N2CCN(c3ccc(C#N)nn3)CC2)cc1 [Compound 108]	–
7.6	CC(C)c1ccc(OC(=O)N2CCN(c3ccc(C#N)nn3)[C@@H](C)C2)cc1 [Compound 138]	–
21	CC(C)c1ccc(NC(=O)N2CCN(c3cnc(Cl)cn3)CC2)cc1 [Compound 113]	–
0.13	CC(C)c1ccc(CC(=O)N2CCN(c3ccc(C#N)nn3)[C@H](C)C2)cc1 [Compound 123]	–
2.4	CC(C)c1ccc(CC(=O)N2CCN(c3ccc(C#N)nn3)C(C)(C)C2)cc1 [Compound 136]	–
44.8	CC(C)c1ccc(CC(=O)N[C@@H]2CN(c3ccc(C#N)nn3)C[C@H]2O)cc1F [Compound 105]	–
1	C[C@H]1CN(C(=O)Cc2ccc(C(C)(C)C)cc2)CCN1c1ccc(C#N)nn1 [Compound 140]	–
12.3	CC(C)c1ccc(CC(=O)N[C@H]2CN(c3ccc(C#N)nn3)C[C@@H]2O)cc1 [Compound 87]	–
1.7	C[C@@H]1CN(C(=O)Cc2ccc(C(C)(C)C)cc2)CCN1c1ccc(C#N)nn1 [Compound 141]	–
20.8	CC(C)(C)c1ccc(C(F)(F)C(=O)N2CCN(c3ccc(C#N)nn3)CC2)cc1 [Compound 77]	–
12.5	CC(C)c1ccc(CC(=O)N2CCN(c3ncc(Cl)nc3N)CC2)cc1 [Compound 116]	–
1.8	CC(C)c1ccc(OC(=O)N2CCN(c3ccc(Cl)nn3)CC2)cc1 [Compound 76]	–
33.7	CC(C)c1ccc(OC(=O)N2CCN(c3cnc(C#N)cn3)CC2)cc1 [Compound 110]	–
26.6	CC(C)c1ccc(CC(=O)N[C@@H]2CCN(c3ccc(C#N)nn3)C2)cc1 [Compound 86]	–
0.27	CC(C)c1ccc(CC(=O)N2C[C@@H](C)N(c3ccc(C#N)nn3)[C@@H](C)C2)cc1 [Compound 137]	–
